We go through 9 compounds from patent US20110124569A1, “MACROCYCLIC COMPOUNDS, PROTEASE INHIBITION, AND METHODS OF TREATMENT” (priority 2007, published 2011).

Converted amounts (≈) assume the structure as drawn. Where two headings read alike, the source gives them in different places.

Test [1] deals with T1, porcine pancreatic elastase (Sus scrofa, UniProt P00772).
T1 construct: purchased EPC EC134
The experiment in a line: Porcine pancreatic elastase inhibition assay. Format: biochemical. The note with it: for IC50: substrate concentration near Km (1.5 mM N-succinyl-Ala-Ala-Ala-p-nitroanilide), read-out: Porcine pancreatic elastase inhibitory activity IC50. As for the experimental part:
(§1) The test samples for 1-6 were prepared in DMSO by (log/2)-fold dilutions ranging from 1 mM to 100 pM. All assays were performed in triplicate. Phenylmethylsulfonyl fluoride (PMSF) was used as a positive control in the enzyme assays.
To test the inhibition of porcine pancreatic elastase (Elastase-high purity; EPC, EC134), 75 μg/mL solution of elastase was prepared using Tris-HCl (pH 8.0). […] After preincubation of 165 μL of Tris-HCl (pH 8.0), 10 μL of elastase solution, and 10 μL of test samples in DMSO (5% final concentration) in a microtiter plate at 30° C. for 20 min, 15 μL of substrate solution (1.5 mM final concentration) was added to the mixture. The increase in absorbance was measured for 30 min at intervals of 5 min at 405 nm. Competitive binding was determined by plotting enzyme activity against substrate concentrations in the presence of different inhibitor concentrations (Lineweaver-Burk plot).

In test [2] the target is T2, α-chymotrypsin (bovine pancreas) (Bos taurus, UniProt P00766).
T2 construct: purchased Sigma C4129
The experiment in a line: α-Chymotrypsin inhibition assay. The following applies: substrate concentration near Km (0.75 mM N-succinyl-Gly-Gly-Phe-p-nitroanilide). The format is biochemical. As for the experimental part: as §1
(§2) Inhibitory activity against α-chymotrypsin (bovine pancreas; Sigma, C4129) was determined as follows. A 1-mg/mL solution of chymotrypsin was prepared in assay buffer (50 mM Tris-HCl/100 mM NaCl/1 mM CaCl2, pH 7.8). […] The increase in absorbance was measured for 30 min at intervals of 5 min at 405 nm.

Test [3] deals with HT29 colon adenocarcinoma cells. The experiment in a line: MTT-based cell viability assessment. The note with it: highest concentration tested (50 μM). As for the experimental part: The effects of compounds 5 and 6 on the proliferation of cancer cells was also assessed.
Test [4] deals with T3, trypsin from porcine pancreas (Sus scrofa, UniProt P00761).
T3 construct: purchased Sigma T0303
T3 sequence (P00761 9-231): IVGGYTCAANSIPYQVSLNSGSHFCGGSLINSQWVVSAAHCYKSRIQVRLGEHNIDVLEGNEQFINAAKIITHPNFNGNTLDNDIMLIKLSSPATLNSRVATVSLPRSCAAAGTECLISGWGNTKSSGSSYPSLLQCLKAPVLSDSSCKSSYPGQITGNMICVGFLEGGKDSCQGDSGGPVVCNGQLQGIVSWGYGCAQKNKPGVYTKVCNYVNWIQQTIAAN
Briefly: Trypsin inhibition assay. The format is biochemical. The method, then: as §1, §2
Inhibitory activity against trypsin was assayed as described above for chymotrypsin, using trypsin from porcine pancreas (Sigma, T0303) and Nα-benzoyl-DL-arginine-4-nitroanilide hydrochloride as the substrate solution.

The subject of test [5] is trypsin. The following applies: cited from earlier work.
The target of test [6] is elastase (Sus scrofa, UniProt P00772). The following applies: literature, cited from earlier work.
Chain of elastase (P00772 27-266): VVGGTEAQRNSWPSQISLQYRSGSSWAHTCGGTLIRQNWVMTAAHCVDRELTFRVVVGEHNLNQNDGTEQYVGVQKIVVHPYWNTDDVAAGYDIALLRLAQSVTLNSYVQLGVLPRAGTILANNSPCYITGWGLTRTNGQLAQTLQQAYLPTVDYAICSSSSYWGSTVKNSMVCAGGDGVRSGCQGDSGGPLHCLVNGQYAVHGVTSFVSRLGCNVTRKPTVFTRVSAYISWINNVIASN
For test [7], the system named is chymotrypsin. The note with it: literature, Amp-containing compound; cited from earlier work.

T1 sequence (P00772 27-266): as above

Usually IC50 stands for the concentration needed to halve the response being measured. For the compound `C/C=C1\NC(=O)C(NC(=O)C(CCc2ccc(O)cc2)NC(=O)C(C)NC(=O)C(O)CO)C(C)OC(=O)C(C(C)C)NC(=O)C(Cc2ccc(O)cc2)N(C)C(=O)C(Cc2ccccc2)N2C(=O)C(CCC2O)NC1=O` (stereo not shown) [Compound 1, Lyngbyastatin 5], the IC50 in test [1] amounted to 3.2 ± 2 nM; in test [2], 2800 ± 300 nM.

As to `C/C=C1\NC(=O)[C@@H](NC(=O)[C@H](CCc2ccc(O)cc2)NC(=O)[C@H](C)NC(=O)[C@H](O)COS(=O)(=O)O)[C@@H](C)OC(=O)[C@H](C(C)C)NC(=O)[C@H](Cc2ccc(O)cc2)N(C)C(=O)[C@H](Cc2ccccc2)N2C(=O)[C@H](CC[C@H]2OC)NC1=O` [Compound 2, Lyngbyastatin 6], the IC50 was found to be 3.3 ± 0.8 nM in test [1] and 2500 ± 800 nM in test [2].

In the case of `C/C=C1\NC(=O)C(NC(=O)C(CCC(N)=O)NC(=O)CCC)C(C)OC(=O)C(C(C)C)NC(=O)C(Cc2ccc(O)cc2)N(C)C(=O)C(Cc2ccccc2)N2C(=O)C(CCC2O)NC1=O` (stereo not shown) [Compound 4, somamide B, reference compound], the IC50 came to 9.5 ± 5.2 nM in test [1] and 4200 ± 500 nM in test [2].

Consider `CC(=O)N1CCC[C@H]1C(=O)N[C@H](C(=O)N[C@@H]1C(=O)N[C@@H](CC(C)C)C(=O)NC2CC[C@@H](O)N(C2=O)[C@@H](Cc2ccccc2)C(=O)N(C)C(Cc2ccc(O)cc2)C(=O)N[C@@H](C(C)C)C(=O)O[C@@H]1C)[C@@H](C)O` (stereo partly shown) [Compound 5, Kempopeptin A], for which the “elastase inhibition and selectivity over chymotrypsin” value in test [1] was “inhibited elastase with a slight selectivity over chymotrypsin”. In addition, the “effect on growth of HT29 cells” value in test [3] is “did not significantly affect the growth”.

As to `CCCC(=O)N[C@H](C(=O)N[C@@H]1C(=O)N[C@@H](CCCCN)C(=O)N[C@H]2CC[C@@H](O)N(C2=O)[C@@H]([C@@H](C)CC)C(=O)N(C)[C@@H](Cc2ccc(OC)c(Br)c2)C(=O)N[C@@H](C(C)C)C(=O)O[C@@H]1C)C(C)C` [Compound 6, Kempopeptin B], the “trypsin inhibition, selectivity versus elastase and chymotrypsin” value is “selective in vitro trypsin inhibition” in test [4] and “inhibited only trypsin activity” in test [4] (listed as kempopeptin B). In test [3], the “effect on growth of HT29 cells” value is recorded as “did not significantly affect the growth”.

With `C/C=C1\NC(=O)C(NC(=O)C(CCc2ccc(O)cc2)NC(=O)C(C)NC(=O)C(O)COS(=O)(=O)O)C(C)OC(=O)C(C(C)C)NC(=O)C(Cc2ccc(O)cc2)N(C)C(=O)C(Cc2ccccc2)N2C(=O)C(CCC2O)NC1=O` (stereo not shown) [lyngbyastatin 4], the “trypsin activity upon treatment, previous findings” value in test [5] (previous publication (J. Nat. Prod. 2007, 70, 124-127)) is “unaffected”.

For `CCCCCC(=O)N[C@@H](CC(=O)O)C(=O)N[C@@H]1C(=O)N[C@@H](CCCCN)C(=O)N[C@H]2CC[C@@H](O)N(C2=O)[C@@H]([C@@H](C)CC)C(=O)N(C)[C@@H](Cc2ccc(O)cc2)C(=O)N[C@@H](C(C)C)C(=O)O[C@@H]1C` [micropeptin SD944], the IC50 against trypsin in test [5] (literature value) was 8.0 µg/mL (≈ 8.46 µM).

Take oscillapeptin C: the elastase inhibition entry in test [6] (Amp-containing compound) is listed as “does not inhibit elastase”. For the same compound, in test [7], the chymotrypsin inhibition entry is given as “still inhibits chymotrypsin”.

For the compound planktopeptin BL843, the “protease-inhibitory activity compared with the other planktopeptins” value in test [6] is “one order of magnitude lower”.
